Assay results as given in patent publication US8334235B2, “Thiadiazolyloxyphenylamidines and use thereof as fungicides” (Bayer Cropscience AG, priority 2008, dated 2012).

Key:
Puccinia triticina [1] = assay: Puccinia triticina test (wheat)/curative; type: in vivo; conditions: 192 h, 500 ppm active substance, curative, evaluation 8 days after inoculation, read-out: degree of effectiveness
Protocol: (§1) • Solvent: 50 parts by weight of N,N-dimethylacetamide • Emulsifier: 1 part by weight of alkylaryl polyglycol ether (polyoxyethylene (16) tristearylphenyl ether)
(§2) To prepare a suitable active substance composition, 1 part by weight of active substance is mixed with the given amounts of solvent and emulsifier and the concentrate is diluted to the desired concentration using water.
For the testing of curative effectiveness, young plants are sprayed with a suspension of spores of Puccinia triticina. The plants remain in an incubation chamber at 20° C. and 100% relative humidity for 48 hours and are then sprayed with the active substance composition in the application rate given. The plants are placed in a greenhouse at a temperature of approximately 20° C. and a relative humidity of approximately 80%.
(§3) Evaluation is carried out 8 days after the inoculation. In this connection, 0% means a degree of effectiveness corresponding to that of the control, while a degree of effectiveness of 100% means that no infestation is observed.

Sphaerotheca fuliginea = assay: Sphaerotheca test (cucumber)/protective; type: in vivo; conditions: Podosphaera fuliginea, 168 h, 500 ppm active substance, protective, evaluation 7 days after inoculation, read-out: degree of effectiveness
Protocol: • Solvent: 49 parts by weight of N,N-dimethylformamide • Emulsifier: 1 part by weight of alkylaryl polyglycol ether (polyoxyethylene (16) tristearylphenyl ether) To prepare a suitable active substance composition, 1 part by weight of active substance is mixed with the given amounts of solvents and emulsifier and the concentrate is diluted to the desired concentration using water. For the testing of protective effectiveness, young cucumber plants are sprayed with the active substance composition in the application rate given. One day after treatment, the plants are inoculated with a suspension of spores of Sphaerotheca fuliginea. The plants are then placed in a greenhouse at 70% relative humidity and a temperature of 23° C. Evaluation is carried out 7 days after the inoculation. In this connection, 0% means a degree of effectiveness corresponding to that of the control, while a degree of effectiveness of 100% means that no infestation is observed.

Puccinia triticina [2] = assay: Puccinia triticina test (wheat)/protective; type: in vivo; conditions: 192 h, 500 ppm active substance, protective, evaluation 8 days after inoculation, read-out: degree of effectiveness
Protocol: as §1, §2
For the testing of protective effectiveness, young plants are sprayed with the active substance composition in the application rate given. After the spray coating has been dried on, the plants are sprayed with a suspension of spores of Puccinia triticina. The plants remain in an incubation chamber at 20° C. and 100% relative humidity for 48 hours. The plants are placed in a greenhouse at a temperature of approximately 20° C. and a relative humidity of approximately 80%.
as §3

log P (pH 2.3) = type: physicochemical

- logP (log P (pH 2.3)): 1.62
SMILES: CCN(C)C=Nc1cc(C)c(Oc2nc(C3(Cl)CC3)ns2)cc1Cl [Compound 3, N′-(2-chloro-4-{[3-(1-chlorocyclopropyl)-1,2,4-thiadiazol-5-yl]oxy}-5-methylphenyl)-N-ethyl-N-methylimidoformamide]
- pest or weed control at 500 ppm (Puccinia triticina [1]): ≥ 70%
- pest or weed control at 500 ppm (Sphaerotheca fuliginea): ≥ 70%
- pest or weed control at 500 ppm (Puccinia triticina [2]): ≥ 70%
